These results are taken from patent US9617250B2, “Pyridin-4-yl derivatives” (ACTELION PHARMACEUTICALS LTD., priority 2013, dated 2017).

The target of one assay is human S1P3 receptor (Homo sapiens (Human), UniProt Q99500). The assay can be described thus: GTPγS assay to determine EC50 values, S1P3. To be noted: comparison in words. The assay is classed as biochemical.
The next assay relates to circulating lymphocytes. In words: Assessment of in vivo efficacy: circulating lymphocytes after oral administration. More on the design: species or system rat. The note with it: 6 h after oral administration of 10 mg/kg, normotensive male Wistar rats, compared to vehicle group. As to the method: The efficacy of the compounds of Formula (I) is assessed by measuring the circulating lymphocytes after oral administration of 3 to 30 mg/kg of a compound of Formula (I) to normotensive male Wistar rats. The animals are housed in climate-controlled conditions with a 12 h-light/dark cycle, and have free access to normal rat chow and drinking water. Blood is collected before and 3, 6 and 24 h after drug administration. Full blood is subjected to hematology using Advia Hematology system (Bayer Diagnostics, Zürich, Switzerland).
All data are presented as mean±SEM. Statistical analyses are performed by analysis of variance (ANOVA) using Statistica (StatSoft) and the Student-Newman-Keuls procedure for multiple comparisons. The null hypothesis is rejected when p<0.05.
Lymphocyte counts 6 h after oral administration have been measured for 2 out of 8 exemplified compounds and are in the range of −71% to −73% with an average of −72%.

human S1P3 receptor, sequence (Q99500 whole entry): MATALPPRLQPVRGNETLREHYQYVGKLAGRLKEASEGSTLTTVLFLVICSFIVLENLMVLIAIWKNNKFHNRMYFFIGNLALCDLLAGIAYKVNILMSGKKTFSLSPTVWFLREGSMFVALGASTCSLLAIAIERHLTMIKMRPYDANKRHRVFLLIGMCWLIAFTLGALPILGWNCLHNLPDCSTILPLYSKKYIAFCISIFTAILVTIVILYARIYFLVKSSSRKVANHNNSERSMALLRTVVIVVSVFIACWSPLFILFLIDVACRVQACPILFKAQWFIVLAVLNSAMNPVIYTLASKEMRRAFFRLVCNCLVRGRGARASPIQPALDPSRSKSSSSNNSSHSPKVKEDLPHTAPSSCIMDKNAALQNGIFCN

`CCCc1cc(-c2nc(-c3cc(C)c(OC[C@@H](O)CNC(=O)CO)c(CC)c3)no2)ccn1` [Example 2, (S)—N-(3-(2-ethyl-4-(5-(2-propylpyridin-4-yl)-1,2,4-oxadiazol-3-yl)-6-methyl-phenoxy)-2-hydroxypropyl)-2-hydroxyacetamide]: at human S1P3 receptor, the “potency on S1P3 receptor compared to closest analog in D1” value is “clearly less potent”.

In the case of `CCc1cc(-c2noc(-c3ccnc(CC(C)C)c3)n2)cc(C)c1OC[C@@H](O)CNC(=O)CO` [Example 5, (S)—N-(3-(2-Ethyl-4-(5-(2-isobutylpyridin-4-yl)-1,2,4-oxadiazol-3-yl)-6-methylphenoxy)-2-hydroxypropyl)-2-hydroxyacetamide], the “potency on S1P3 receptor compared to closest analog in D1” value on human S1P3 receptor was “significantly less potent”.

As to `CCc1cc(-c2noc(-c3ccnc(C(CC)CC)c3)n2)cc(C)c1OC[C@@H](O)CNC(=O)CO` [Example 7, (S)—N-(3-(2-ethyl-4-(5-(2-(pentan-3-yl)-pyridin-4-yl)-1,2,4-oxadiazol-3-yl)-6-methylphenoxy)-2-hydroxypropyl)-2-hydroxyacetamide], the “potency on S1P3 receptor compared to closest analog in D1” value on human S1P3 receptor is “significantly less potent”. In addition, the Lymphocyte counts with circulating lymphocytes is −71%.

Take `CCc1cc(-c2noc(-c3ccnc(C4CCCC4)c3)n2)cc(C)c1OC[C@@H](O)CNC(=O)CO` [Example 8, (S)—N-(3-(2-ethyl-4-(5-(2-cyclopentylpyridin-4-yl)-1,2,4-oxadiazol-3-yl)-6-methylphenoxy)-2-hydroxypropyl)-2-hydroxyacetamide]: on human S1P3 receptor, the “potency on S1P3 receptor compared to closest analog in D1” value was “significantly less potent”. Besides, the Lymphocyte counts with circulating lymphocytes was −73%.
